{"source": "patent EP0623350A1", "about": "“Use of Bradykinin-antagonists for the manufacture of a medicament for the prophylaxis and treatment of arteriosclerosis” (HOECHST AKTIENGESELLSCHAFT, priority 1993, dated 1994)", "assay_type_in_all_cases": "in vivo, weißen Kaninchen (New Zealand)", "key": {"[1]": {"test_system": "atherosklerotischen Plaques in der Aorta", "test": "Atherosclerotic plaques in the aorta of cholesterol-fed rabbits (Oil Red O staining, image analysis)", "excerpt": "(§1) Der Versuch wurde mit weißen Kaninchen (New Zealand) männlichen Geschlechts mit einem Gewicht von 3-4 Kilogramm in Anlehnung an die publizierten Methoden nach A. Kisanuki, Y. Asada, K. Hatakeyama, T. Hayashi und A. Sumiyoshi: Contributions of the Endothelium to Intimal Thickening in Normocholesterolemic and Hypercholesterolemic Rabbits, Arteriosclerosis and Thrombosis (1992), 12; 1198 - 1205 und J. Cooke, A. Singer, P. Tsao, P. Zera, R.Rowan and M. Billingham: Antiatherogenic Effects of L-Arginine in the Hypercholesterolemic Rabbit(1992), 90; 1168 - 1172 durchgeführt. Nach einer Woche unter Standard-Kaninchenfutter (Altromin 2834, Lage-Lippe, Deutschland) wurden zwei Gruppen mit je 15 Kaninchen drei Monate lang mit cholesterinreicher Diät gefüttert. Die Diät enthielt 0.25% Cholesterin und 3% Kokosnußöl. Eine der beiden Gruppen erhielt zusätzlich eine subkutane Dauerinfusion von HOE 140 über implantierte osmotische Minipumpen über den gesamten Zeitraum von drei Monaten. Die Dosis betrug 100 µg/kg/Tag.\n(§2) Eine weitere Gruppe von 15 Kaninchen, die nicht-atherogene normale Diät erhielt, diente als negative Kontrolle. Futter und Wasser wurden ad libitum gegeben. Der Nachweis, daß die gewählte Dosis HOE 140 die Wirkung endogener Kinine hemmen kann, wurde über die Hemmung der blutdrucksenkenden Wirkung von exogenem Bradykinin geführt. Am Ende des Versuches, nach dreimonatiger Behandlung, wurden die Tiere narkotisiert und der basale Blutdruck gemessen. Der basale Blutdruck lag zwischen 100 und 110 mm Hg. Nach der Messung des basalen Blutdrucks wurde Bradykinin intraarteriell als Bolus in einer Dosis von 10 ng injiziert. Bei den Tieren mit normalem Futter führte dies zu einem Blutdruckabfall von 21 mm Hg, bei den Tieren mit atherogener Diät betrug der Blutdruckabfall 24 mm Hg. Bei Kaninchen mit atherogener Diät, die mit HOE 140 behandelt wurden, fiel der Blutdruck nur noch um 3.7 mm Hg, was eine effektive Hemmung der Bradykininwirkung durch HOE 140 anzeigte.\n(§3) Danach wurden die Kaninchen mit einer hohen Dosis von Pentobarbital (40 mg/kg) getötet und eine komplette Autopsie durchgeführt. Die atherosklerotischen Plaques wurden durch Öl-Rot O ([…]) sichtbar gemacht, ihr Ausmaß mittels eines Bildanalysators quantifiziert und die prozentuale Plaquegröße in der Aorta bestimmt. Weiterhin wurden die Cholesterinfraktionen (HDL, LDL und VLDL) im Serum mit Hilfe der Ultrazentrifugation bestimmt."}, "[2]": {"test_system": "Serum Lipoprotein Fraktionen", "test": "Serum cholesterol/lipoprotein fractions (HDL, LDL, VLDL) by ultracentrifugation in cholesterol-fed rabbits", "excerpt": "as §1, §3"}, "[3]": {"test_system": "blutdrucksenkenden Wirkung von exogenem Bradykinin", "test": "Inhibition of the blood-pressure-lowering effect of exogenous bradykinin in anaesthetised rabbits", "conditions": "Bradykinin 10 ng intra-arterial bolus; anaesthetised rabbits on atherogenic diet after 3 months HOE 140 100 µg/kg/Tag s.c.; untreated controls 21 and 24 mm Hg", "excerpt": "as §2"}, "[4]": {"conditions": "atherogenic diet 3 months plus HOE 140 100 µg/kg/Tag s.c. continuous infusion, mean ± S.E.M."}}, "data": [{"smiles": "N=C(N)NCCC[C@@H](N)C(=O)N[C@@H](CCCNC(=N)N)C(=O)N1CCC[C@H]1C(=O)N1C[C@H](O)C[C@H]1C(=O)NCC(=O)N[C@@H](Cc1cccs1)C(=O)N[C@@H](CO)C(=O)N1Cc2ccccc2C[C@@H]1C(=O)N1[C@H](C(=O)N[C@@H](CCCNC(=N)N)C(=O)O)C[C@@H]2CCCC[C@@H]21", "note": "[HOE 140]", "values": [{"measurement": "Plaques in der Aorta: Fläche in Prozent der Intimafläche, Thorakale Aorta", "setting": "[1]; [4]", "result": "1.6 ± 1.1", "unit": "Prozent der Intimafläche"}, {"measurement": "Plaques in der Aorta: Fläche in Prozent der Intimafläche, Aortenbogen", "setting": "[1]; atherogenic diet (0.25% Cholesterin, 3% Kokosnußöl) 3 months plus HOE 140 100 µg/kg/Tag s.c. continuous infusion, mean ± S.E.M.", "result": "23.4 ± 5.4", "unit": "Prozent der Intimafläche"}, {"measurement": "Plaques in der Aorta: Fläche in Prozent der Intimafläche, Abdominelle Aorta 1", "setting": "[1]; first section of abdominal aorta, atherogenic diet 3 months plus HOE 140 100 µg/kg/Tag s.c. continuous infusion, mean ± S.E.M.", "result": "1.4 ± 0.6", "unit": "Prozent der Intimafläche"}, {"measurement": "Arteriosklerotische Veränderungen der Gefäßwände", "setting": "[1]; result in words, cholesterol-fed rabbits treated with HOE 140", "result": "stark reduziert"}, {"measurement": "Atherosklerotische Veränderungen des Aortenbogens und der Aortenabschnitte in Brust und Bauch", "setting": "[1]; result in words, versus atherogenic diet alone", "result": "bei weitem geringer"}, {"measurement": "Plaques in der Aorta: Fläche in Prozent der Intimafläche, Abdominelle Aorta 2", "setting": "[1]; second section of abdominal aorta, atherogenic diet 3 months plus HOE 140 100 µg/kg/Tag s.c. continuous infusion, mean ± S.E.M.", "result": "7.0 ± 1.5", "unit": "Prozent der Intimafläche"}, {"measurement": "Serum Lipoprotein Fraktionen, HDL", "setting": "[2]; [4]", "result": "4981 ± 576", "unit": "µg/mL"}, {"measurement": "Serum Lipoprotein Fraktionen, LDL", "setting": "[2]; [4]", "result": "168 ± 21", "unit": "µg/mL"}, {"measurement": "Serum Lipoprotein Fraktionen, VLDL", "setting": "[2]; [4]", "result": "250 ± 12", "unit": "µg/mL"}, {"measurement": "HDL-Werte", "setting": "[2]; result in words, HDL raised by cholesterol-rich diet", "result": "keinen Einfluß"}, {"measurement": "LDL und VLDL (Serumlipide)", "setting": "[2]; result in words, versus atherogenic diet alone, hardly distinguishable from normal-diet controls", "result": "stark erniedrigt"}, {"measurement": "Blutdruckabfall nach Bradykinin", "setting": "[3]", "result": 3.7, "unit": "mm Hg"}]}]}
